Results from US12551451B2, “Compositions and methods for delivering molecules” (SunVax mRNA Therapeutics Inc., priority 2023, dated 2026).

What was measured:
[1] = LNP Characteristics (size, PDI, encapsulation efficiency) of LNPs formulated with novel ionizable lipids; type: physicochemical; details: LNP formulated with the ionizable lipid, DOPE, Cholesterol, DMG-PEG2000
Procedure: LNPs formulated using the novel ionizable lipids of the disclosure or control ionizable lipids MC3 and SM-102 were synthesized by mixing the lipid components of the LNP in ethanol at a predetermined molar ratio (ionizable lipid/DOPE/Cholesterol/DMG-PEG2000=30/15/50/1.5) to prepare an organic phase. Sa-mRNA encoding firefly luciferase (LUC) or green fluorescent protein (GFP) was diluted in 50 mM citrate buffer (pH 4.5, Fisher) to prepare an aqueous phase. The sa-mRNA was stored at −80° C. and was thawed on ice prior to use. The ethanol and aqueous phases were mixed at a 1:3 ratio by pipette with the N/P=4.2/1. The resultant LNPs were purified by ultrafiltration (100,000 cut-off, MilliporeSigma™ Amicon™ Ultra-15 Centrifugal Filter Units) at 4° C. prior to transfection into a cell, such as a T-cell.
LNPs formulated using novel ionizable lipids of the disclosure were synthesized using the procedure described in Example 2 and characterized. Table 4 below show the properties of each LNP formulated using a novel ionizable lipid of the disclosure.

[2] = test system: endogenous CD4, CD8, CD4/CD8 T cells and NK cells; test: In vivo transfection of T and NK cells with LNP-encapsulated modified mRNA encoding eGFP, FACS of splenocytes; design: species or system Balb/c mice; details: LNP delivering 10 mg modified mRNA encoding eGFP, intravenously, 18 hours after injection
Procedure: (§1) LNP formulated using the ionizable lipids of the disclosure were used to deliver modified RNA encoding reporter genes to determine the transfection efficiency of exemplary ionizable lipids of the disclosure in immune cells and organs. Injections of mice with LNP-encapsulated modified mRNA encoding either Luciferases or eGFP were performed. In experiments with payloads encoding Luciferase mRNA, spleen expression was detected, which is an important organ with abundant pan T cells. In experiments with payloads encoding eGFP mRNA, transfection of primary T cells in vivo by FACS analysis was performed.
Balb/c mice were intravenously injected with of 10 mg modified mRNA encoding eGFP. The modified mRNA encoding eGFP were delivered using LNPs formulated with P1D4 and P161F6 ionizable lipids in groups of 5 mice. A control group of 5 mice were injected with PBS. Balb/c mice were injected intravenously. The mice were sacrificed 18 hours after injection. Single cell splenocytes were prepared for FACS staining.

spleen = test: In vivo Luciferase expression after injection of LNP-encapsulated modified mRNA, IVIS imaging; details: LNP delivering 10 mg modified mRNA encoding Luciferase; 18 hours post injection; Balb/c mice
Procedure: as §1
Balb/c mice were intraperitoneally injected with 10 mg modified mRNA encoding Luciferase, encapsulated by LNPs formulated with P1D4, P51C12, P161F6 ionizable lipids. To detect luminescence, the mice were subsequently injected with 6 mg Luciferin, a substrate of Luciferase and imaged by IVIS five minutes later.

Row | Avg. Encapsulation Efficiency (EE) % [1] [%] | Avg. PDI [1] | Avg. Size [1] [nm] | SMILES | transfection of endogenous CD4, CD8, CD4/CD8 T cells and NK cells [2] | transfection of the spleen (Luciferase signal) (spleen)
1 | 92.7 | 0.17 | 170.4 | CCCCCCCCCCCCCC(=O)N(CC(CCCCCCCC)CCCCCCCCCC)C(C(=O)NCC(=O)OCC)C1CCN(CC)CC1 (stereo not shown) [Lipid P1D4, Ethyl (2-(1-ethylpiperidin-4-yl)-2-(N-(2-octyldodecyl)tetradecanamido)acetyl)glycinate] | could transfect endogenous CD4, CD8, CD4/CD8 T cells as well as NK cell | effectively transfected the spleen
2 | 90.6 | 0.10 | 173.2 | CCCCCCCCCCCCCCCCC(=O)N(C(CCCCCCC)CCCCCCC)C(C(=O)NC12CC3CC(CC(C3)C1)C2)C1CCN(CC)CC1 (stereo not shown) [Lipid P56B1, N-(2-(((1s,3s)-adamantan-1-yl)amino)-1-(1-ethylpiperidin-4-yl)-2-oxoethyl)-N-(pentadecan-8-yl)heptadecanamide] |  | 
3 | 92.9 | 0.10 | 219 | CCCCCCCC/C=C\CCCCCCCC(=O)N(C(CCCCCCC)CCCCCCC)C(C(=O)NC1CCCCCC1)C1CCN(CC)CC1 (stereo not shown) [Lipid P149A1, N-(2-(cycloheptylamino)-1-(1-ethylpiperidin-4-yl)-2-oxoethyl)-N-(pentadecan-8-yl)oleamide] |  | 
4 | 92.0 | 0.10 | 218 | CCCCCCCC/C=C\CCCCCCCC(=O)N(C(CCCCCCCC)CCCCCCCC)C(C(=O)NC1CCCCCC1)C1CCN(CC)CC1 (stereo not shown) [Lipid P149A2, N-(2-(cycloheptylamino)-1-(1-ethylpiperidin-4-yl)-2-oxoethyl)-N-(heptadecan-9-yl)oleamide] |  | 
5 | 90.1 | 0.15 | 176 | CCCCCC/C=C\CCCCCCCC(=O)N(C(CCCCCCCC)CCCCCCCC)C(C(=O)NC1CCCCCC1)C1CCN(CC)CC1 (stereo not shown) [Lipid P149C2, (Z)-N-(2-(cycloheptylamino)-1-(1-ethylpiperidin-4-yl)-2-oxoethyl)-N-(heptadecan-9-yl)hexadec-9-enamide] |  | 
6 | 90.1 | 0.12 | 148 | CCCCCCCCCCCCOC(=O)CCC(=O)N(C(CCCCCCC)CCCCCCC)C(C(=O)NC1CCCCCC1)C1CCN(CC)CC1 (stereo not shown) [Lipid P153C1, dodecyl 4-((2-(cycloheptylamino)-1-(1-ethylpiperidin-4-yl)-2-oxoethyl)(pentadecan-8-yl)amino)-4-oxobutanoate] |  | 
7 | 86.8 | 0.07 | 86.8 | CCCCCCCCCCCCOC(=O)CCC(=O)N(C(CCCCCCCCC)CCCCCCCCC)C(C(=O)NC1CCCCCC1)C1CCN(CC)CC1 (stereo not shown) [Lipid P153C3, dodecyl 4-((2-(cycloheptylamino)-1-(1-ethylpiperidin-4-yl)-2-oxoethyl)(nonadecan-10-yl)amino)-4-oxobutanoate] |  | 
8 | 62.0 | 0.14 | 169 | CCCCCCCCCCCCOC(=O)CCC(=O)N(C(CCCCCCCCCCC)CCCCCCCCCCC)C(C(=O)NC1CCCCCC1)C1CCN(CC)CC1 (stereo not shown) [Lipid P153C5, dodecyl 4-((2-(cycloheptylamino)-1-(1-ethylpiperidin-4-yl)-2-oxoethyl)(tricosan-12-yl)amino)-4-oxobutanoate] |  | 
9 | 95.8 | 0.13 | 174 | CCCCCCCCCCCCOC(=O)CCC(=O)N(CC(CCCCCCCC)CCCCCCCCCC)C(C(=O)NC1CCCCCC1)C1CCCN(CC)C1 (stereo not shown) [Lipid P159C10, dodecyl 4-((2-(cycloheptylamino)-1-(1-ethylpiperidin-3-yl)-2-oxoethyl)(2-octyldodecyl)amino)-4-oxobutanoate] |  | 

Row | SMILES | Avg. Encapsulation Efficiency (EE) % [1] [%] | Avg. PDI [1] | Avg. Size [1] [nm] | transfection of endogenous CD4, CD8, CD4/CD8 T cells and NK cells [2] | transfection of the spleen (Luciferase signal) (spleen)
10 | CCCCCCCCCCCCC(CCCCCCCCCC)CN(C(=O)CCC(C)C1CCC2C3CC(O)C4CC(O)CCC4(C)C3CCC12C)C(C(=O)NC12CC3CC(CC(C3)C1)C2)C1CCN(CC)CC1 (stereo not shown) [Lipid P161F6, N-(2-(((1s,3s)-adamantan-1-yl)amino)-1-(1-ethylpiperidin-4-yl)-2-oxoethyl)-N-(2-decyltetradecyl)-4-(3,6-dihydroxy-10,13-dimethylhexadecahydro-1H-cyclopenta[a]phenanthren-17-yl)pentanamide] | 87.1 | 0.18 | 215 | could transfect endogenous CD4, CD8, CD4/CD8 T cells as well as NK cell | effectively transfected the spleen
11 | CCCCCCCCCCC(CCCCCCCC)CN(C(=O)CCC(C)C1CCC2C3CC(O)C4CC(O)CCC4(C)C3CCC12C)C(CC1CCN(C)CC1)C(=O)NC12CC3CC(CC(C3)C1)C2 (stereo not shown) [Lipid P161F10, N-(1-(((1s,3s)-adamantan-1-yl)amino)-3-(1-methylpiperidin-4-yl)-1-oxopropan-2-yl)-4-(3,6-dihydroxy-10,13-dimethylhexadecahydro-1H-cyclopenta[a]phenanthren-17-yl)-N-(2-octyldodecyl)pentanamide] | 87.9 | 0.19 | 225 |  | 
